Where two headings read alike, the source gives them in different places.

The test system of the assay is C. acnes (ATCC reference 11827). Kind of assay: Cutibacterium acnes Time-Kill assay. Type of assay: cell-based. The procedure: Sodium ascorbyl phosphate, niacinamide, allantoin as well as a combination thereof were screened for their potential anti-microbial activities against C. acnes (ATCC reference 11827). The action of ingredients and combinations thereof is assessed through a miniaturized method performed in liquid media in 96 deepwell plates format. The inhibition of the growth of C. acnes is compared to the same strain growth in corresponding optimal media.
The different ingredients are mixed in growth medium (final volume 2mL) in deepwell plates (n=3). Analysis controls are prepared and used identically to samples : • A growth control of Cutibacterium acnes in the corresponding culture medium; • A growth control of Cutibacterium acnes with ethanol at 2,5 % (v/v) directly in the culture medium; • A growth control of microorganisms with olive oil at 5 % (v/v) directly in the culture medium; • A control consisting of Salicylic acid at 0.5% directly in the culture medium Then, samples are contaminated with C. acnes, inoculum at final concentration of 3,7 x10^5 cfu/mL, […]
To perform the counting, aliquots of the contaminated samples are serially diluted (decimal dilutions) in culture medium in 96-well plates with triphenyltetrazolium and incubated at 37°C ± 2,5°C during 48 h. After 48 h at the optimal growing conditions, the last dilution showing a pink color (triphenyltetrazolium) or turbidity indicates the contamination rate and allow the determination of the corresponding microbial population.

[1] abbreviates: 2 h, read-out: Log-step reduction (2h).

Turning to `NC(=O)NC1NC(=O)NC1=O` (centres unmarked) [Allantoin, 2,5-dioxo-4-imidazolidinyl urea], the log reduction at 0.5 % (0.5 wt.-% in growth medium, 2h, compared to initial log/cfu of 5.6, n=3, read-out: Log-step reduction (2h)) stood at 0.6.
On to `O=C1O[C@H]([C@@H](O)CO)C(O)=C1OP(=O)(O)O` [Sodium ascorbyl phosphate, sodium ascorbyl phosphate], for which the log reduction at 3 % (3 wt.-% in growth medium, 2h, compared to initial log/cfu of 5.6, n=3, read-out: Log-step reduction (2h)) was 1.7.
Turning to `NC(=O)c1cccnc1` [Niacinamide, pyridine-3-carboxamide], the log reduction at 3 % under setting [1] amounted to 0.7.
For the compound `O=C(O)c1ccccc1O` [Salicylic acid, reference compound], the log reduction at 0.5 % under setting [1] came to 3 and the log reduction at 0.5 % (2.5 h, read-out: log-step reduction of C. acnes) was 3.

The values are drawn from patent publication EP3964211A1, “A COMPOSITION COMPRISING AN ASCORBYL PHOSPHATE, NIACINAMIDE AND ALLANTOIN FOR TREATING ACNE” (DSM IP Assets B.V., priority 2020, dated 2022).
